Laboratory results from patent US20150272922A1, “Compounds for Reducing Glucocorticoids, and Methods of Treatment Thereof” (BIONICHE LIFE SCIENCES INC., priority 2012, published 2015).
In brackets after ≈: the same amount, converted by molar mass. Where two headings read alike, the source gives them in different places.

System: trout head kidney tissue
Assay: Cortisol lowering activity in trout head kidney slice model (ACTH-stimulated cortisol release)
Format: cell-based, rainbow trout (Oncorhynchus mykiss)
Settings: for effect on cortisol production: 60 μg/ml, ACTH 1 U/ml; for EC50: Oncorhynchus mykiss; for concentration dependence of effect on cortisol production: ACTH 1 U/mL
Experimental: Head kidney tissue was isolated using a modified method as described by Conde-Sieira et al. (2013). Fish were anaesthetized with benzocaine (30-35 mg/L), blood was removed from the caudal vein using a 3 mL heparinized syringe and the fish euthanized by spinal transection. The vasculature was perfused through the post-cardinal vein with 40 mL of modified Hanks' medium (92.56 mM NaCl, 3.63 mM KCl, 0.55 mM MgSO4, 0.4 mM KH2PO4, 0.23 Na2HPO4, 7.5 mM Hepes, 2.81 mM NaHCO3, 0.85 mM CaCl2, 0.03% (w/v) bovine albumin serum) containing EGTA (1 mM final) adjusted to pH 7.64. The entire head kidney was removed from the trout and transferred to a 15 mL chilled glass petri dish containing modified Hanks' medium (pH 7.15). The tissue was weighed then transferred to a 35 mL chilled glass petri dish containing […] modified Hanks' medium per gram of tissue supplemented with MEM amino acid solution (50×; 2 mL/100 mL medium; Sigma—M5550), MEM non-essential amino acid solution (100×; 1 mL/100 mL medium; Sigma˜M7145) and Antibiotic-Antimycotic (100×; 1 mL/100 mL medium; Life Technologies˜15240). The tissue was chopped finely with a razor blade then separated further using a rubber policeman. The tissue was incubated at 13° C. with gentle agitation for 1.5 h to ensure basal levels of cortisol release. Optimal incubation times were determined in previous experiments (Conde-Sieira et al., 2013).
Following the 1.5 h pre-incubation, tissue was placed in 48-well culture plates (approximately 25 mg tissue pre well) along with a final volume of 250 μL modified Hanks' medium. There were two wells for each compound treatment; one control (−ACTH) and one stimulated (+ACTH) that were conducted simultaneously. Tissues were incubated with compounds of the disclosure (60 μg/mL) initiated at the same time as determined in previous experiments (Mullally et al., 2012) for 60 min at 13° C. with gentle agitation and stimulated with 1 U/mL ACTH (Sigma-Aldrich). The compounds were dissolved in ethanol and DMSO (final concentration of DMSO: 0.3% v/v, ethanol 1% v/v) by vortexing for 1 min and sonication for 30 s if the compound was not fully dissolved (determined by visual inspection). After incubation, tissue and supernatant were collected and transferred to pre-weighed 1.5 mL conical plastic tubes and centrifuged (14 000 RCF, 10 min). The supernatant was collected and transferred into a new 1.5 mL conical plastic tube and flash frozen in liquid nitrogen for subsequent cortisol assay. The mass of tissue for each sample was determined by weighing the remaining tissue in the pre-weighed tubes. Four control wells were prepared for each preparation: modified Hanks' medium, modified Hanks' medium plus ACTH (1 U/mL), DMSO/ethanol blank (0.3% v/v DMSO, 1% v/v ethanol) and DMSO/ethanol blank plus ACTH (1 U/mL).
Cortisol concentrations were assessed using a ^125I RIA kit (MP Biomedicals, Irvine, Calif., USA) as per the manufacturer's instructions and read using a Packard® Cobra™ Auto-Gamma Counter. Counts were normalized to tissue weights in each experimental well.
Data are presented as % change in ACTH-stimulated cortisol release relative to control preparation (modified Hanks' medium stimulated with ACTH) using GraphPad Prism software (GraphPad Software, Inc., La Jolla, Calif.). […] GraphPad Prism software (GraphPad Software, Inc., La Jolla, Calif.) was used to graph and calculate EC50 values by fitting a sigmoidal curve to the dose response data as well as linear regressions between Log P of compounds of the disclosure vs log cortisol responses.

[1] = read-out: calculated EC50, approximate (inhibition of cortisol production)
[2] = GraphPad Prism fit, n=3-7, FIG. 3, read-out: EC50, four parameter sigmoidal curve (ACTH-stimulated cortisol release)

Compound: COC(=O)[C@]12CC[C@@H](C(C)O)C1C1CCC3[C@@]4(C)CC[C@H](O)C(C)(C)C4CC[C@@]3(C)[C@]1(C)CC2 (single isomer, unassigned) [Compound 1546]
- effect on cortisol production: lowered cortisol production
- EC50 [1]: ~9 µg/mL (≈ 19 µM)
- EC50 [2]: 9.5 µg/mL (≈ 20 µM)

Compound: CC(=O)[C@@H]1CC[C@]2(C(=O)O)CC[C@]3(C)[C@H](CC[C@@H]4[C@@]5(C)CC[C@H](O)C(C)(C)[C@@H]5CC[C@]43C)[C@@H]12 [Compound 1516, Platanic Acid]
- effect on cortisol production: lowered cortisol production
- EC50 [1]: ~9 µg/mL (≈ 19.6 µM)
- EC50 [2]: 9.4 µg/mL (≈ 20.5 µM)
- concentration dependence of effect on cortisol production (dose response): inhibited cortisol production in a dose-dependent manner

Compound: C=C(C)[C@@H]1CC[C@]2(C(=O)OC)CC[C@]3(C)C(CCC4[C@@]5(C)C[C@@H](O)C(=O)C(C)(C)C5CC[C@]43C)C12 (stereo partly drawn) [Compound 1521, Methyl 2α-hydroxy betulonate]
- effect on cortisol production: lowered cortisol production

Compound: C=C(C)[C@@H]1CC[C@]2(/C=C/C(=O)OCC)CC[C@]3(C)C(CCC4[C@@]5(C)CC[C@H](O)C(C)(C)C5CC[C@]43C)C12 (some centres unmarked) [Compound 1529, Vinylogous ethyl betulinate]
- effect on cortisol production: lowered cortisol production
- EC50 [2]: 116 µg/mL (≈ 227 µM)

Compound: COC(=O)[C@]12CC[C@@H](C)[C@H](C)[C@H]1C1=CCC3[C@@]4(C)C[C@@H](O)C(=O)C(C)(C)C4CC[C@@]3(C)[C@]1(C)CC2 (stereo partly drawn) [Compound 1537, Methyl 2α-hydroxy-3-oxo-urs-12-en-28-oate]
- effect on cortisol production: lowered cortisol production
- EC50 (ACTH-stimulated cortisol release, dose response, FIG. 3, read-out: calculated EC50, approximate (inhibition of cortisol production)): ~28 µg/mL (≈ 57.8 µM)
- EC50 [2]: 28.2 µg/mL (≈ 58.2 µM)
- concentration dependence of effect on cortisol production (dose response): inhibited cortisol production in a dose-dependent manner
